Several values for one entry are separate records, joined by “and”; a condition that tells them apart may be missing. Equal entries are not always repeated.
Columns and labels:
Caspase 3 = target: T1, Caspase 3 (Homo sapiens, UniProt P42574); experiment: Caspase 3 Activity Assay; type: biochemical; settings: 500 nM Ac-DEVD-AMC; 3.2 nM enzyme; pre-incubated 30 minutes at 25° C., 60 minutes at 37° C.; sigmoidal fit; read-out: Caspase 3 (Inhibition of cysteine protease activities)
T1 sequence (P42574 29-175 limits assumed): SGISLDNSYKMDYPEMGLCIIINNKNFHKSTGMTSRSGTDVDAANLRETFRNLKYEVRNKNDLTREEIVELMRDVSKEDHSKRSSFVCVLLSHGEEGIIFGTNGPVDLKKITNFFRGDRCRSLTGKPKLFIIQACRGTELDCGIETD
T1 sequence (P42574 176-277 limits assumed): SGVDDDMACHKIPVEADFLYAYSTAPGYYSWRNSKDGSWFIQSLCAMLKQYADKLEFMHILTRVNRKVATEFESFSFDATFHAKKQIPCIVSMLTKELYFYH
Experimental: Caspase 3 was diluted in Caspase B buffer (100 mM Hepes pH 7.5; 10% sucrose; 0.1% CHAPS). Compounds stocks (100 mM) were stored at −20° C. in DMSO. Compounds were tested at the following final concentrations: 100 μM; 33.3 μM; 11.1 μM; 3.7 μM; 1.23 μM; 412 nM; 137 nM; 45.7 nM; 15.2 nM; 5 nM. Reactions were performed as duplicates in Black LJL 96 well plates (HE microplates; Molecular Devices; 20 μl final reaction volume). The substrate concentration for caspase 3 specificity assay was 500 nM (Ac-DEVD-AMC; Promega). The concentration of the enzyme (Caspase 3) in specificity assays was 3.2 nM. The concentrations were determined in order to perform specificity assays under initial velocities at fixed substrate concentration. Compounds were pre-incubated with enzymes for 30 minutes at 25° C. Reactions were initiated by addition of substrate to the plates containing the enzymes (+/− compounds) diluted in assay buffer. Reactions were incubated for 60 minutes at 37° C. Reactions were stopped by adding acetic acid (100 mM final) Readings were performed on a Pherastar Fluorescent Reader (BMG). δ Emission 380 nm; δ Excitation=460 nm. Data (mean values +/− standard deviation) were analyzed as % of control (no compound) and plotted as percentage versus the Log of the compound concentration using GraphPad (Prism). Data were fitted to a sigmoidal model (variable slope).

Cathepsin B = Cathepsin B (Homo sapiens, UniProt P07858); experiment: Cathepsin B Activity Assay; type: biochemical; settings: 36 μM z-RR-AMC; 3.6 nM enzyme; pre-incubated 30 minutes at 25° C., 60 minutes at 37° C.; sigmoidal fit; read-out: Cathepsin B (Inhibition of cysteine protease activities)
Experimental: Cathepsin B was diluted in Cathepsin B buffer (20 mM Tris HCl pH 6.8; 1 mM EDTA; 1 mM DTT). Compounds stocks (100 mM) were stored at −20° C. in DMSO. Compounds were tested at the following final concentrations: 100 μM; 33.3 μM; 11.1 μM; 3.7 μM; 1.23 μM; 412 nM; 137 nM; 45.7 nM; 15.2 nM; 5 nM. Reactions were performed as duplicates in Black LJL 96 well plates (HE microplates; Molecular Devices; 20 μl final reaction volume). The substrate concentration for cathepsin B specificity assay was 36 μM (z-RR-AMC; Calbiochem). The concentration of the enzyme (Cathepsin B) in specificity assays was 3.6 nM. The concentrations were determined in order to perform specificity assays under initial velocities at fixed substrate concentration. Compounds were pre-incubated with enzymes for 30 minutes at 25° C. Reactions were initiated by addition of substrate to the plates containing the enzymes (+/− compounds) diluted in assay buffer. Reactions were incubated for 60 minutes at 37° C. Reactions were stopped by adding acetic acid (100 mM final). Readings were performed on a Pherastar Fluorescent Reader (BMG). δ […]. Data (mean values +/− standard deviation) were analyzed as % of control (no compound) and plotted as percentage versus the Log of the compound concentration using GraphPad (Prism). Data were fitted to a sigmoidal model (variable slope).

IC50 (Caspase 3) | IC50 (Cathepsin B) | Molecule
1900 nM |  | O=C1c2ccccc2-c2nc3nnc(C4CC4)n3nc21 [Example 1j/A, 1-Cyclopropyl-2,3,4,10,10a-pentaaza-cyclopenta[b]fluoren-9-one]
 | > 100000 nM | Cn1nc2nc3c(nc2n1)-c1ccccc1C3=O [Example 4a, 2-Methyl-2H-1,2,3,4,10-pentaaza-cyclopenta[b]fluoren-9-one]
1510 nM | 17400 nM | 6-(7)-Chloro-1-methyl-2,3,4,10,10a-pentaaza-cyclopenta[b]fluoren-9-one [Example 3/A]
556 nM | 314 nM | COCc1nnc2nc3c(nn12)-c1ccccc1C3=O [Example 1i/B, 3-Methoxymethyl-1,2,3a, 4,10-pentaaza-cyclopenta[b]fluoren-9-one]
598 nM |  | O=C1c2ccccc2-c2nc3nnc(Cc4ccccc4)n3nc21 [Example 1k/A, 1-Benzyl-2,3,4,10,10a-pentaaza-cyclopenta[b]fluoren-9-one]
164 nM | 363 nM | O=C1c2ccccc2-c2nn3c(Cc4ccccc4)nnc3nc21 [Example 1k/B, 3-Benzyl-1,2,3a,4,10-pentaaza-cyclopenta[b]fluoren-9-one]
743 nM | 147 nM | Cc1nnc2nc3c(nn12)-c1ccc(Cl)cc1C3=O [Example 3/B, 7-Chloro-3-methyl-1,2,3a, 4,10-pentaaza-cyclopenta[b]fluoren-9-one]
926 nM | 1020 nM | COCc1nnc2nc3c(nn12)C(=O)c1ccccc1-3 [Example 1i/A, 1-Methoxymethyl-2,3,4,10,10a-pentaaza-cyclopenta[b]fluoren-9-one]
188 nM | 181 nM | O=C1c2ccccc2-c2nn3c(C4CC4)nnc3nc21 [Example 1j/B, 3-Cyclopropyl-1,2,3a,4,10-pentaaza-cyclopenta[b]fluoren-9-one]

More lines, now with the values behind:

Molecule | IC50 (Caspase 3) | IC50 (Cathepsin B)
O=C1c2ccccc2-c2nn3c(CO)nnc3nc21 [Example 1h/B] | 1020 nM | 547 nM
Cc1nnc2nc3c(nn12)C(=O)c1ccccc1-3 [Example 1b/A, 1-Methyl-2,3,4,10,10a-pentaaza-cyclopenta[b]fluoren-9-one] | 4100 nM | 24000 nM
CCCc1nnc2nc3c(nn12)C(=O)c1ccccc1-3 [Example 1e/A, 1-Propyl-2,3,4,10,10a-pentaaza-cyclopenta[b]fluoren-9-one] | > 100000 nM | 5410 nM
CCc1nnc2nc3c(nn12)C(=O)c1ccccc1-3 [Example 1d/A, 1-Ethyl-2,3,4,10,10a-pentaaza-cyclopenta[b]fluoren-9-one] | 11600 nM | 
O=C1c2ccccc2-c2nc3nnc(CO)n3nc21 [Example 1h/A, 1-Hydroxymethyl-2,3,4,10,10a-pentaaza-cyclopenta[b]fluoren-9-one] | 3900 nM | 30000 nM
CCCc1nnc2nc3c(nn12)-c1ccccc1C3=O [Example 1e/B, 3-Propyl-1,2,3a, 4,10-pentaaza-cyclopenta[b]fluoren-9-one] | 727 nM | 267 nM
CC(C)Cc1nnc2nc3c(nn12)-c1ccccc1C3=O [Example 1g/B, 3-Isobutyl-1,2,3a,4,10-pentaaza-cyclopenta[b]fluoren-9-one] | 629 nM | 264 nM
Nc1nnc2nc3c(nn12)-c1ccccc1C3=O [Example 1c/B, 3-Amino-1,2,3a,4,10-pentaaza-cyclopenta[b]fluoren-9-one] |  | 103 nM
CCc1nnc2nc3c(nn12)-c1ccccc1C3=O [Example 1d/B, 3-Ethyl-1,2,3a, 4,10-pentaaza-cyclopenta[b]fluoran-9-one] | 212 nM and 467 nM | 150 nM
CCCCc1nnc2nc3c(nn12)-c1ccccc1C3=O [Example 1f/B, 3-Butyl-1,2,3a,4,10-pentaaza-cyclopenta[b]fluoren-9-one] | 475 nM | 233 nM
Cc1nnc2nc3c(nn12)-c1ccccc1C3=O [Example 1b/B, 3-Methyl-1,2,3a,4,10-pentaaza-cyclopenta[b]fluoren-9-one] | 424 nM | 182 nM
CC(C)Cc1nnc2nc3c(nn12)C(=O)c1ccccc1-3 [Example 1g/A, 1-Isobutyl-2,3,4,10,10a-pentaaza-cyclopenta[b]fluoren-9-one] | > 100000 nM | 4620 nM
CCCCc1nnc2nc3c(nn12)C(=O)c1ccccc1-3 [Example 1f/A, 1-Butyl-2,3,4,10,10a-pentaaza-cyclopenta[b]fluoren-9-one] | 4600 nM | 6500 nM
Nc1nnc2nc3c(nn12)C(=O)c1ccccc1-3 [Example 1c/A, 1-Amino-2,3,4,10,10a-pentaaza-cyclopenta[b]fluoren-9-one] | 3700 nM | 5000 nM

Source: US7462615B2, “Inhibitors of cysteine proteases, the pharmaceutical compositions thereof and their therapeutic applications” (Hybrigenics SA, priority 2005, dated 2008)
